The source of these data is publication PMC6120190, “Identification of two distinct peptide-binding pockets in the SH3 domain of human mixed-lineage kinase 3” (The Journal of Biological Chemistry, 2018).

The term IC50 denotes the point on the concentration scale where inhibition reaches its midpoint.

Data set [1] has as its system SH3 domain of MLK3. The conditions noted are these: cited from earlier work. The text has this: Mixed-lineage protein kinase 3 (MLK3) is widely expressed in a variety of normal and cancerous tissues, such as brain, lung, liver, heart, breast, kidney, pancreas, and skeletal muscle ([34][–][36]). MLK3, also known as MAP3K11, is a serine/threonine protein kinase involved in regulating the JNK, p38, and ERK pathways ([37][–][42]). It is composed of several modules: an SH3 domain, a kinase domain, tandem leucine zippers, a Cdc42/Rac interactive binding (CRIB) motif, several linker regions, and a proline-rich C-terminal tail ([39], [43]). According to the BioGRID interaction database ([44]), M ...

Data set [2] deals with GST-MLK3 SH3. Nature of the data set: phage ELISA of phage-displayed MIP and variants on GST-MLK3 SH3. The class given is binding, human. The conditions noted are these: original clone/MIP, anti-M13 mAb-HRP detection, experiments in duplicate, averaged. The protocol:
(§1) Figure 1. […] The presence of virions in the supernatant was determined by coating the wells of the microtiter plate with an anti-M13 mAb (anti-M13 Ab). Virions, which were retained in the microtiter plate wells, were detected with anti-M13 mAb conjugated to HRP. […] See also Fig. S1.
Figure 2. […] The MIP sequence, NH2-[…]-COOH, was fused to the N terminus of the pIII capsid protein of bacteriophage M13 ([51]) to facilitate type 3 pentavalent display. Systematic alanine replacements in the peptide were generated by Kunkel mutagenesis ([11]); Ala-1 and Ala-14 were replaced with Val. […] The signal for binding of MIP (WT) to GST-MLK3 SH3 is set as 100%, and other values are normalized to it. […] See also Fig. S2.
Screens for peptide ligands were performed following a protocol published previously ([11]). […] After three rounds of affinity selection, individual phage clones were isolated, and their binding was evaluated via phage ELISA ([11]). […]
All constructs were generated via Kunkel mutagenesis ([11], [57], [58]) and facilitated type 3 (pentavalent) display. […] All constructs were verified by DNA sequencing, and phage clones were evaluated for their binding to the target (GST-MLK3 SH3) via phage ELISA ([11]). […]

Data set [3] relates to GST fusion partner. Put plainly: phage ELISA of phage-displayed MIP on GST fusion partner. The class given is binding. To be noted: duplicate (Fig. 1). As to the method: as §1
Screens for peptide ligands were performed following a protocol published previously ([11]). The purified target protein, GST-MLK3 SH3-WT, was prebound to GSH magnetic beads (Pierce, catalogue number 88821), and nonspecific binding sites were blocked with phosphate-buffered saline (PBS; 137 mM NaCl, 3 mM KCl, 8 mM Na2HPO4, 1.5 mM KH2PO4) containing 3% (w/v) bovine serum albumin (BSA). […] After three rounds of affinity selection, individual phage clones were isolated, and their binding was evaluated via phage ELISA ([11]). Positive clones were then sequenced.
Background: In an ELISA, binding on a coated surface is turned into a signal by an enzyme label.

In data set [4] the test system is GST-MLK1 SH3. Put plainly: specificity ELISA, MLK1. In kind it is binding, human. To be noted: biotinylated peptide ≈2 μM on NeutrAvidin; GST-SH3 0.15 μM, 1–1.5 h; anti-GST-HRP; triplicate (Fig. 8). As to the method: (§2) Figure 8. Binding of MIP and NS5A peptides to SH3 domain of other members of MLK subfamily (MLK1–4). To determine whether MIP and NS5A can interact with SH3 domains of MLK1–4 proteins, the purified GST-MLK1–4 SH3 domains were incubated with biotinylated peptides, NS5A peptide ([…]-GGG-K-biotin), MIP ([…]-K-biotin), and MIP-R12A ([…]-K-biotin), immobilized on a NeutrAvidin-coated 96-well ELISA plate. Binding of SH3 domain was detected with anti-GST antibody conjugated to HRP. […] See also Fig. S6.
(§3) Two plasmids, gifts from Dr. Gerardo Morfini, University of Illinois at Chicago, encoding a GST protein fused to either the WT or mutant Y52A of the SH3 domain of MLK3 (UniProt entry Q16584; aa 43–104), respectively, between BamHI and EcoRI sites, were transformed into the Escherichia coli strain Rosetta(DE3)pLysS. DNA fragments encoding the SH3 domain of MLK1 (UniProt entry P80192; aa 52–116), MLK2 (UniProt entry Q02779; aa 16–81), and MLK4 (UniProt entry Q5TCX8; aa 38–102) were commercially prepared as gBlocks® Gene Fragments (Integrated DNA Technologies, Inc.). All coding regions were codon-optimized for E. coli expression. DNA fragments were cleaved with BamHI-HF® and EcoRI-HF® (New England Biolabs) and subsequently ligated into pGex-2T vector. […]

The subject of data set [5] is GST-MLK2 SH3. Nature of the data set: specificity ELISA, MLK2. To be noted: biotinylated peptide ≈2 μM on NeutrAvidin; GST-SH3 0.15 μM, 1–1.5 h; anti-GST-HRP; triplicate (Fig. 8). The class given is binding, human. The protocol:
as §2, §3

Data set [6] has as its system GST-MLK3 SH3. Nature of the data set: specificity ELISA, MLK3. In kind it is binding, human. To be noted: biotinylated peptide ≈2 μM on NeutrAvidin; GST-SH3 0.15 μM, 1–1.5 h; anti-GST-HRP; triplicate (Fig. 8). The protocol: as §2, §3
Data set [7] concerns GST-MLK4 SH3. Nature of the data set: specificity ELISA, MLK4. The class given is binding, human. To be noted: biotinylated peptide ≈2 μM on NeutrAvidin; GST-SH3 0.15 μM, 1–1.5 h; anti-GST-HRP; triplicate (Fig. 8). The protocol:
as §2, §3

The subject of data set [8] is MLK3 SH3 domain Y52A. Put plainly: binding to Y52A mutant of MLK3 SH3. On the set-up: species or system human. To be noted: data not shown. The text has this:
Two plasmids, gifts from Dr. Gerardo Morfini, University of Illinois at Chicago, encoding a GST protein fused to either the WT or mutant Y52A of the SH3 domain of MLK3 (UniProt entry Q16584; aa 43–104), respectively, between BamHI and EcoRI sites, were transformed into the Escherichia coli strain Rosetta(DE3)pLysS. DNA fragments encoding the SH3 domain of MLK1 (UniProt entry P80192; aa 52–116), MLK2 (UniProt entry Q02779; aa 16–81), and MLK4 (UniProt entry Q5TCX8; aa 38–102) were commercially prepared as gBlocks® Gene Fragments (Integrated DNA Technologies, Inc.). All coding regions were codon-optimized for E. coli expression. DNA fragments were cleaved with BamHI-HF® and EcoRI-HF® (New England Biolabs) and subsequently ligated into pGex-2T vector. The resulting DNA constructs, pGex-MLK1 SH3, pGex-MLK2 SH3, and pGex-MLK4 SH3 (verified by sequencing) were transformed into E. coli strain BL21(DE3).

Data set [9] has as its system GST tag. Put plainly: binding of MIP to GST tag. The conditions noted are these: ELISA. The protocol:
After three washes with PBS containing 0.1% Tween 20 (PBST), retention of the SH3 domain fusion protein in wells was detected with an anti-GST antibody conjugated to horseradish peroxidase (HRP) (GE Healthcare; 45 min; 1:5000 in PBST). Following three washes with PBST, the chromogenic substrate solution 2,2-azinobis(3-ethylbenzthiazoline-6-sulfonic acid) (ABTS; Pierce); 10 ml of 50 mM sodium citrate, pH 4.0; and 100 μl of 3% H2O2 were added to the plate (100 μl/well). The absorbance was measured at 405 nm with a POLARstar OPTIMA microtiter plate reader (BMG Labtech).

For data set [10], the target named is T1, GST-MLK3 SH3(43–104) (human, UniProt Q16584 43-104).
T1 construct: also called GST-MLK3 SH3-WT; SH3 WT
T1 sequence (looked up): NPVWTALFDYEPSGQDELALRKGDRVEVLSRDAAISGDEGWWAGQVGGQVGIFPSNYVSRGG
Nature of the data set: ELISA. To be noted: both partners purified.

The target in data set [11] is T2, GST-MLK1 SH3 (UniProt P80192 52-116).
T2 construct: also called SH3 domain of MLK1
T2 sequence (looked up): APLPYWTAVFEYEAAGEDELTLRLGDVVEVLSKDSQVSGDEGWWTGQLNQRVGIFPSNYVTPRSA
Nature of the data set: ELISA. The conditions noted are these: both partners purified.

The target in data set [12] is T3, GST-MLK2 SH3 (UniProt Q02779 16-81).
T3 construct: also called SH3 domain of MLK2
T3 sequence (looked up): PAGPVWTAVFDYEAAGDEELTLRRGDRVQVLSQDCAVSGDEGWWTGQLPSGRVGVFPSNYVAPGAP
Put plainly: ELISA. The conditions noted are these: both partners purified.

Data set [13] has as its target T4, GST-MLK4 SH3 (UniProt Q5TCX8 38-102).
T4 construct: also called SH3 domain of MLK4
T4 sequence (looked up): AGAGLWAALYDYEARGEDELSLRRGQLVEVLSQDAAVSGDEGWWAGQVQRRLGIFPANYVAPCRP
Put plainly: ELISA. To be noted: both partners purified.

Data set [14] concerns the molecule itself. Put plainly: SEC. A general note: SEC sorts molecules by how far they enter the pores of the column.
The target in data set [15] is T1, GST-MLK3 SH3(43–104). Nature of the data set: ELISA; competition ELISA: GST-MLK3 SH3 (5 μg/ml) preincubated 1–1.5 h with ≈0.01–100 μM unlabeled competitor peptide, then 45 min on biotinylated MIP (≈2 μM) captured via NeutrAvidin; anti-GST-HRP detection; GST tag tested as a control. The conditions noted are these: both partners purified.

No end group written: not given here. *: point of attachment. Biotin = O=C1N[C@H]2[C@H](CS[C@H]2CCCCC(=O)*)N1

For the molecule “HCV NS5A: hepatitis C virus nonstructural 5A protein”, the “interaction with SH3 domain of MLK3” value in data set [1] is recorded as “interact with the SH3 domain of MLK3 via a PXXPXR motif”.
Take “NH2-AIRINPNGTWSRQAETVES-COOH [phage-displayed MIP, MIP fused to the N terminus of the pIII capsid protein of bacteriophage M13]”: the “binding to GST-MLK3 SH3 in phage ELISA” value in data set [2] is recorded as “bind to the WT form of the MLK3 SH3 domain”. In addition, the “binding to GST fusion partner in phage ELISA” value in [3] was “not the GST fusion partner”.
On to `CC[C@H](C)[C@H](NC(=O)[C@H](C)N)C(=O)N[C@@H](CCCNC(=N)N)C(=O)N[C@H](C(=O)N[C@@H](CC(N)=O)C(=O)N1CCC[C@H]1C(=O)N[C@@H](CC(N)=O)C(=O)NCC(=O)N[C@H](C(=O)N[C@@H](Cc1c[nH]c2ccccc12)C(=O)N[C@@H](CO)C(=O)N[C@@H](CCCNC(=N)N)C(=O)N[C@@H](CCC(N)=O)C(=O)N[C@@H](C)C(=O)N[C@@H](CCC(=O)O)C(=O)N[C@H](C(=O)N[C@H](C(=O)N[C@@H](CCC(=O)O)C(=O)N[C@@H](CO)C(=O)O)C(C)C)[C@@H](C)O)[C@@H](C)O)[C@@H](C)CC` [MIP], for which, in [4], the “binding to MLK1 SH3” value is on record as “bound”. Also, in [5], the “binding to MLK2 SH3” value was “did not bind”. In addition, in data set [6], the “binding to MLK3 SH3” value was “bound”. In addition, the “binding to MLK4 SH3” value in data set [7] was “bound”. Besides, the “effect of SH3 mutation Y52A on peptide binding” value in data set [8] is given as “disrupts binding”. Besides, in [9], the “interaction with GST tag” value is reported as “no interactions”.

B1: biotinylated NS5A peptide ([…]-GGG-K-biotin) (peptide)
peptide: KKAPTPPPRRRRGGGK(Biotin)
notes: also called immobilized NS5A; source: synthetic peptide
For B1, the binding result in data set [10], in data set [11], in [12] and in [13] was “binds” throughout.

B2: MLK3 SH3(41–105)-MIP(1–13) fusion protein (other, human)
chain: YANPVWTALFDYEPSGQDELALRKGDRVEVLSRDAAISGDEGWWAGQVGGQVGIFPSNYVSRGGGAIRINPNGTWSRQ
notes: also called the WT construct
With B2, the binding result in data set [14] is “binds”.

B3: unlabeled MIP (synthetic) (peptide)
peptide: AIRINPNGTWSRQAETVES
notes: also called MIP(1–19); soluble MIP peptide; source: synthetic peptide
As for B3, the figures for the concentration for half-maximal inhibition (IC50) in data set [10] and in data set [15] were 6.6 ± 1.6 µM and 15.8 ± 0.4 µM, respectively.
